We go through three compounds from patent US6919424B2, “Binding peptides for carcinoembryonic antigen (CEA)” (Dyax Corp., priority 2000, dated 2005).

The target of one assay is T1, NA3 (Homo sapiens, UniProt P06731).
T1 construct: H6NA3, consisting of a hexahistidine leader and the N and A3 domains of CEA, was used
T1 sequence (P06731 35-144 limits assumed): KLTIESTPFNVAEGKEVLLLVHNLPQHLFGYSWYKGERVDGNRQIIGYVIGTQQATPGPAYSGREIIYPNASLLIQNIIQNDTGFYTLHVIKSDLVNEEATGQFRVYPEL
T1 sequence (P06731 501-588 limits assumed): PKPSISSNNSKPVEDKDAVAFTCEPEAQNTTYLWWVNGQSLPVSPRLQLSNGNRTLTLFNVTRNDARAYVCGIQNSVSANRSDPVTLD
Kind of assay: Phage ELISA with varying amounts of NA3 per well (FIGS. 2, 4, 5). Type of assay: binding. To be noted: FIG. 2; 100, 50, 10, 5, 1, 0 ng per well. The protocol: The first bar for each sample represents wells each having 100 ng CEA. Successive bars represent 50 ng, 10 ng, 5 ng, 1 ng, and 0 ng CEA per well.
The first bar for each sample represents wells each having 30 ng NA3. Successive bars represent 10 ng, 3 ng, and 0 ng NA3 per well.
Several Isolates gave especially strong ELISA signals and these were tested further.
Several Isolates gave especially strong ELISA signals and these were tested further. […] Isolate 304A-12-H12 (designated DX306) was assayed in parallel as a basis for comparison.
In general terms: In an ELISA, binding on a coated surface is turned into a signal by an enzyme label.

A further assay has as its target T2, H6NA3 (Homo sapiens, UniProt P06731).
T2 construct: H6NA3, consisting of a hexahistidine leader and the N and A3 domains of CEA, was used
T2 sequence (P06731 35-144 limits assumed): T1 sequence (P06731 35-144 limits assumed)
T2 sequence (P06731 501-588 limits assumed): T1 sequence (P06731 501-588 limits assumed)
Kind of assay: Fluorescence anisotropy direct binding to H6NA3 / NA3. The note with it: from KD of Table 7 versus Table 3. The protocol:
Each peptide was also provided with a C-terminal amide-functional linker useful for immobilizing peptides to various chromatographic substrates: -Ala18-Pro19-Gly20-Gly-Glu-Gly-Gly-Gly-Ser-Lys-CONH2 (SEQ ID NO:28). […] Aliquots of each peptide were fluorescently labeled using NHS-fluorescein reacted with the ε-amino side group of the C-terminal lysine.
Dissociation constants were determined using fluorescence anisotropy, through direct binding measurements and competition experiments. In direct binding assays, the concentration of the fluorescein-labeled peptide is held constant and the concentration of H6NA3 is varied. In the competition experiment, the concentration of the fluorescein-labeled peptide and the H6NA3 target are held constant and the concentration of a competitor (cT84.66, unlabeled) is varied. The change in anisotropy is fit to the appropriate equation via nonlinear regression to obtain the apparent Kd.
Aliquots of each peptide were fluorescently labeled using NHS-fluorescein reacted with the ε-amino side group of the C-terminal lysine.
Dissociation constants were determined using fluorescence anisotropy, through direct binding measurements (see Example 6).
Peptides including the binding domain of the CEA binder Isolates were synthesized by solid-phase synthesis. Each peptide was also provided with a C-terminal amide-functional linker useful for immobilizing peptides to various chromatographic substrates: -Ala18-Pro19-Gly20-Gly-Glu-Gly-Gly-Gly-Ser-Lys-CONH2 (SEQ ID NO:28). […] Aliquots of each peptide were fluorescently labeled using NHS-fluorescein reacted with the ε-amino side group of the C-terminal lysine.
Dissociation constants were determined using fluorescence anisotropy, through direct binding measurements to either NA-3 or CEA in PBS with 0.01% TWEEN 20. […] Isolate 304A-12-H12, previously isolated from Lib2 and assayed for binding, was analyzed in parallel as a control. […] KD standard error values are calculated from the nonlinear regression (SIGMAPLOT, SPSS Science, Chicago, Ill.).
In general terms: In fluorescence polarisation assays a small probe gives low polarisation when free and higher when bound to something large.

For assay [1], the target named is T3, CEA (Homo sapiens, UniProt P06731).
T3 construct: purchased
T3 sequence (P06731 35-676): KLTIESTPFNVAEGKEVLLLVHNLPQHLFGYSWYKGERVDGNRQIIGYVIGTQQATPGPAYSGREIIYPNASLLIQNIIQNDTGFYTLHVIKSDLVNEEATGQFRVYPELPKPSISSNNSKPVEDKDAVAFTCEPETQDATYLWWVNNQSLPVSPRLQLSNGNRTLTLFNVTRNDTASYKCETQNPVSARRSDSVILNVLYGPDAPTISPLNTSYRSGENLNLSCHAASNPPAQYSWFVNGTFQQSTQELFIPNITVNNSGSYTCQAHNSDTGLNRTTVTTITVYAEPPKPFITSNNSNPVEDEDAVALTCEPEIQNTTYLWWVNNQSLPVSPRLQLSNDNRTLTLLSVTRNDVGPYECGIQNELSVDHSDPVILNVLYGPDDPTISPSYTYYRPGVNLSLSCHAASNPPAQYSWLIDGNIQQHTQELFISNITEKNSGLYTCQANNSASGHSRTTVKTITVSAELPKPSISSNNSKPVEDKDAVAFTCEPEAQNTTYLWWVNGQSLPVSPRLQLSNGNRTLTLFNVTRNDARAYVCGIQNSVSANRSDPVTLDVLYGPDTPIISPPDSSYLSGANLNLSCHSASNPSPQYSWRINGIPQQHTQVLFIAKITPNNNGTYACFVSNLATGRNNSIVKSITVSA
Put plainly: Fluorescence anisotropy direct binding to CEA. To be noted: compared with binding to NA3. How it is done:
Dissociation constants were determined using fluorescence anisotropy, through direct binding measurements to either NA-3 or CEA in PBS with 0.01% TWEEN 20. In direct binding assays, the concentration of the fluorescein-labeled peptide is held constant and the concentration of NA3 is varied. In the competition experiment, the concentration of the fluorescein-labeled peptide and the NA3 target are held constant and the concentration of competitor peptide (from Isolate 12-H12) is varied. The change in anisotropy is fit to the appropriate equation via nonlinear regression to obtain the apparent Kd. Isolate 304A-12-H12, previously isolated from Lib2 and assayed for binding, was analyzed in parallel as a control. Replicate analyses were run for certain binders and are reported to confirm accuracy and precision of measurements. KD standard error values are calculated from the nonlinear regression (SIGMAPLOT, SPSS Science, Chicago, Ill.).

In assay [2] the target is T3, CEA. Kind of assay: Later evaluation of CEA binding, method not given.

In the case of `CC(C)C[C@H](NC(=O)[C@@H](NC(=O)[C@H](CC(N)=O)NC(=O)[C@@H]1CSSC[C@H](NC(=O)[C@@H](NC(=O)[C@H](Cc2c[nH]c3ccccc23)NC(=O)[C@H](CC(=O)O)NC(=O)[C@@H](N)CO)C(C)C)C(=O)N[C@@H](CCC(=O)O)C(=O)N[C@@H](Cc2ccc(O)cc2)C(=O)N[C@@H](Cc2ccccc2)C(=O)N[C@@H](CCCCN)C(=O)N[C@@H](CC(N)=O)C(=O)N[C@@H](CCC(N)=O)C(=O)N[C@@H](Cc2c[nH]c3ccccc23)C(=O)N[C@@H](Cc2ccccc2)C(=O)N1)C(C)C)C(=O)N[C@@H](C)C(=O)N1CCC[C@H]1C(=O)NCC(=O)NCC(=O)N[C@@H](CCC(=O)O)C(=O)NCC(=O)NCC(=O)NCC(=O)N[C@@H](CO)C(=O)N[C@@H](CCCCNC(=O)c1ccc2c(c1)C(=O)OC21c2ccc(O)cc2Oc2cc(O)ccc21)C(N)=O` [Isolate 304A-12-H12, DWVCEYFKNQWFCNVL], the “phage ELISA binding profile to varying amounts of NA3” value on NA3 is on record as “do not drop off so quickly”. In addition, on H6NA3, the “increase in affinity compared to the Isolate G08 peptide” value was determined as 8 fold. Further, on CEA [1], the “binding to CEA (in words)” value is “effectively bound CEA, but not as strongly as they bound NA3”.
Take “NWRCKLFPRYPYCSSW (Isolate of TN10/9 library found not to bind CEA) [Isolate G01]”: the “binding to CEA with useful affinity” value in the assay with CEA [2] is given as “not to bind CEA with useful affinity”.
Turning to “-RYCEFFPWSLHCGRP (Isolate of TN10/9 library found not to bind CEA) [Isolate B10]”, the “binding to CEA with useful affinity” value in the assay with CEA [2] is listed as “not to bind CEA with useful affinity”.
